Assay results as given in patent publication US4367287A, “Process of producing antibiotic AR-5 complex” (Schering Corporation, priority 1981, dated 1983).
Read-outs that look alike come from different tables or passages of the source.

What was measured:
[1] = system: Antibiotic AR-5 Sensitive strains; test: In vivo mouse protection test, Antibiotic AR-5 sensitive strains; parameters: species or system male (Carworth CF-1) mice; conditions: for ED50: Mus musculus, Antibiotic AR-5 sensitive strains, number of strains averaged in parentheses, read-out: Mean PD50; for oral potency relative to erythromycin and rosaramicin (fold more potent): in vivo PD50, in general
Description: (§1) In vivo mouse protection tests were performed in male (Carworth CF-1) mice weighing 18-20 g each. Infection was with about 10^7 organisms per mouse or sufficient inocula to cause death of control groups 24 to 48 hours after infection. The infecting organisms included strains of Staphylococcus Enterococcus, β-hemolytic Streptococcus and E. coli.

[2] = system: Antibiotic AR-5 Resistant strains; test: In vivo mouse protection test, Antibiotic AR-5 resistant strains; parameters: species or system male (Carworth CF-1) mice; conditions: read-out: Mean PD50
Description: as §1

[3] = Serum levels of the antibiotics; assay type: in vivo; conditions: mice, rats and dogs
Description: The serum levels of the respective antibiotics were measured in mice, rats and dogs.

Acute toxicity in mice = conditions: mouse, in vivo, male CF-1 mice, survivors at 24 and 48 hours
Description: The acute toxicity determinations were carried out with groups of male (Carworth CF-1) mice weighing 18-20 g. LD50 values […] the dose that was lethal to 50% of the mice) were calculated by probit analysis based on the number of survivors at 24 and 48 hours after dosing.

M. polytrota = test: Antibiotic susceptibility of producing strain; assay type: cell-based, Micromonospora polytrota; conditions: for sensitivity of M. polytrota: concentration not given; for Growth in the presence of 50 mcg/ml antibiotic: M. polytrota
Description: Test antibiotics were dissolved in the appropriate solvent at a concentration based on an activity of 1000 mcg/ml. Stock solutions were diluted in sterile distilled water to a final concentration of 500 mcg/ml and filter sterilized ([…] filters, Millipore Corporation). To 10 ml of the sterile antibiotic solutions, 90 ml of melted agar consisting of yeast extract, 10 g; dextrose, 10 g; agar, 15 g; tap water, 1000 ml; […] cooled to 45° C. was added, and 20 ml of the resulting mixture was aseptically pipetted into sterile petri dishes (100×150 mm). The final concentration of each antibiotic in the agar was 50 mcg/ml.

In the case of CCC1OC(=O)/C=C/C(C)C(OC2OC(C)CC(N(C)C)C2O)C(C)CC(C)C(=O)/C=C/C2OC2C1COC1OC(C)C(O)C(OC)C1OC (stereo not drawn) [A, Antibiotic AR-5 component 1], the ED50 ([1]; sc) was 4 mg/kg, the ED50 ([1]; oral) was 4.1 mg/kg and the “oral potency relative to erythromycin and rosaramicin (fold more potent)” value ([1]; oral) was 30-40 fold. For the same compound, the ED50 ([2]; po) was 100 mg/kg, the ED50 ([2]; sc) was 100 mg/kg and the “duration of therapeutic serum levels” value [3] was “produces therapeutic serum levels of greater duration”. The LD50 (Acute toxicity in mice; ip) was 310 mg/kg and the LD50 (Acute toxicity in mice; iv) was 140 mg/kg.

With CCC1OC(=O)/C=C/C(C)C(OC2OC(C)CC(N(C)C)C2O)C(C)CC(C)C(=O)/C=C/C=C/C1COC1OC(C)C(O)C(OC)C1OC (stereo not drawn) [B, 12,13-desepoxy AR-5 component 1] the ED50 ([1]; sc) was 2.5 mg/kg, the ED50 ([1]; oral) was 3.8 mg/kg and the “oral potency relative to erythromycin and rosaramicin (fold more potent)” value ([1]; oral) was 30-40 fold. The ED50 ([2]; po) was 100 mg/kg, the ED50 ([2]; sc) was 100 mg/kg and the LD50 (Acute toxicity in mice; ip) was 275 mg/kg. For the same compound, the LD50 (Acute toxicity in mice; iv) was 160 mg/kg.

Work on CCC1OC(=O)/C=C/C(C)C(OC2OC(C)CC(N(C)C)C2O)C(C)CC(C)C(=O)/C=C/C2OC2C1(O)COC1OC(C)C(O)C(OC)C1OC (stereo not drawn) [C, Antibiotic AR-5 component 2] yielded an ED50 ([1]; sc) of 5.1 mg/kg, an ED50 ([1]; oral) of 35.8 mg/kg and an ED50 ([2]; po) of 100 mg/kg. The ED50 ([2]; sc) was 100 mg/kg, the “time of peak serum levels” value ([3]; versus the other antibiotics tested) was “produces peak serum levels earlier than any of the other antibiotics tested” and the LD50 (Acute toxicity in mice; ip) was 610 mg/kg. For the same compound, the LD50 (Acute toxicity in mice; iv) was 310 mg/kg.

With O=C(N[C@H](CO)[C@H](O)c1ccc([N+](=O)[O-])cc1)C(Cl)Cl [Chloramphenicol] the “sensitivity of M. polytrota” value (M. polytrota) was “exhibits sensitivity”.

With CCC[C@@H]1C[C@@H](C(=O)N[C@@H]([C@H]2O[C@H](SC)[C@H](O)[C@@H](O)[C@H]2O)[C@H](C)Cl)N(C)C1 [Clindamycin] the “Growth in the presence of 50 mcg/ml antibiotic” value (shortened to “Growth in the presence”) (M. polytrota) was “grows”.

CC[C@H]1OC(=O)[C@H](C)[C@@H](O[C@H]2C[C@@](C)(OC)[C@@H](O)[C@H](C)O2)[C@H](C)[C@@H](O[C@@H]2O[C@H](C)C[C@H](N(C)C)[C@H]2O)[C@](C)(O)C[C@@H](C)C(=O)[C@H](C)[C@@H](O)[C@]1(C)O [E, Erythromycin, reference compound] showed an ED50 ([1]; sc) of 13.3 mg/kg, an ED50 ([1]; oral) of 135 mg/kg and an ED50 ([2]; po) of 400 mg/kg. It also gave an ED50 ([2]; sc) of 100 mg/kg, an LD50 (Acute toxicity in mice; ip) of 355 mg/kg and an LD50 (Acute toxicity in mice; iv) of 260 mg/kg.

In the case of CC[C@H]1OC(=O)C[C@@H](O)[C@H](C)[C@@H](O[C@@H]2O[C@H](C)C[C@H](N(C)C)[C@H]2O)[C@@H](CC=O)C[C@@H](C)C(=O)/C=C/[C@]2(C)O[C@H]2[C@@H]1C [F, Rosaramicin, reference compound], the ED50 ([1]; sc) was 8.3 mg/kg, the ED50 ([1]; oral) was 181 mg/kg and the ED50 ([2]; po) was 400 mg/kg. The ED50 ([2]; sc) was 100 mg/kg, the LD50 (Acute toxicity in mice; ip) was 260 mg/kg and the LD50 (Acute toxicity in mice; iv) was 175 mg/kg. The LD50 (Acute toxicity in mice; oral) was 1300 mg/kg and the “sensitivity of M. polytrota” value (M. polytrota) was “exhibits sensitivity”.

In the case of NC[C@H]1O[C@H](O[C@H]2[C@H](O)[C@@H](O[C@H]3O[C@H](CO)[C@@H](O)[C@H](N)[C@H]3O)[C@H](N)C[C@@H]2N)[C@H](O)[C@@H](O)[C@@H]1O [Kanamycin], the “Growth in the presence” value (M. polytrota) was “grows”.

In the case of CCC[C@@H]1C[C@@H](C(=O)N[C@@H]([C@H]2O[C@H](SC)[C@H](O)[C@@H](O)[C@H]2O)[C@@H](C)O)N(C)C1 [Lincomycin], the “Growth in the presence” value (M. polytrota) was “grows”.

In the case of CN[C@@H]1[C@@H](O)[C@@H](O[C@@H]2[C@@H](O)[C@H](O[C@H]3OC(CN)=CC[C@H]3N)[C@@H](N)C[C@H]2N)OC[C@]1(C)O [Sisomicin], the “Growth in the presence” value (M. polytrota) was “grows”.

In the case of Gentamicin, the “Growth in the presence” value (M. polytrota) was “grows”.
